Measured values from ChEMBL document CHEMBL1201862, “PubChem BioAssay data set” (2004).
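Each compound was tested at five concentrations against cells in 96-well plates for 48 hours. Abbreviation: GI50, concentration required for 50% inhibition of growth.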 Active and inactive are the calls of the source. No stated cut-off is given here; in the data, active = GI50 up to about 1.1 µM and inactive = higher.

Assays:
Experiment in all cases: NCI tumour cell line growth inhibition, 48 h
[1] = test system: HL-60
[2] = test system: SK-MEL-5
[3] = test system: A549
[4] = test system: HT-29
[5] = test system: RPMI-8226
[6] = test system: Malme-3M
[7] = test system: SF-268
[8] = test system: U-251
[9] = test system: 786-0
[10] = test system: NCI-H226
[11] = test system: KM12
[12] = test system: OVCAR-8
[13] = test system: CCRF-CEM
[14] = test system: ACHN
[15] = test system: MOLT-4
[16] = test system: EKVX
[17] = test system: HCC 2998

Measured: GI50

O=C(c1cccs1)N(C(=S)N1CCN(c2ccccn2)CC1)c1ccccc1
inactive: [1] > 100 µM | [2] 41.6 µM | [3] > 100 µM | [4] > 100 µM | [5] > 100 µM | [6] > 100 µM | [7] 87.3 µM | [8] > 100 µM | [9] > 100 µM | [10] 29 µM | [11] > 100 µM | [12] 81.7 µM | [13] > 100 µM | [14] > 100 µM | [15] 48.4 µM

CC(C)=CC1(C)/C(=N\O)C(C)(CC(C)C)C(=O)N1O (configuration not stated)
inactive: [1] > 100 µM | [2] > 100 µM | [3] > 100 µM | [4] > 100 µM | [5] > 100 µM | [6] > 100 µM | [8] > 100 µM | [9] > 100 µM | [10] > 100 µM | [11] > 100 µM | [16] > 100 µM | [12] > 100 µM | [13] > 100 µM | [14] > 100 µM | [17] > 100 µM | [15] > 100 µM

CC(=O)NC1=C(N)C(=O)c2ccccc2C1=O
inactive: [1] 27.1 µM | [2] 30.6 µM | [3] 44.4 µM | [4] 65.8 µM | [5] 60 µM | [6] 21.3 µM | [7] 37.8 µM | [8] 56.5 µM | [9] 37.7 µM | [11] > 100 µM | [16] > 100 µM | [12] > 100 µM | [13] 47.1 µM | [14] > 100 µM | [17] > 100 µM | [15] > 100 µM

N#CC1CCCCCCCCCCC(=O)N(CCCl)C1=O (configuration not stated)
inactive: [1] > 100 µM | [2] > 100 µM | [3] > 100 µM | [4] > 100 µM | [5] > 100 µM | [6] > 100 µM | [7] > 100 µM | [8] > 100 µM | [9] > 100 µM | [11] > 100 µM | [16] > 100 µM | [12] > 100 µM | [13] > 100 µM | [14] > 100 µM | [17] > 100 µM | [15] > 100 µM

Cc1ccc(Cl)c2c(=O)cc(-c3ccccc3)[nH]c12
inactive: [1] 48.5 µM | [2] 37.8 µM | [3] 46.3 µM | [4] 50.4 µM | [5] 40.8 µM | [6] 51.6 µM | [7] 58.6 µM | [8] 88.5 µM | [9] > 100 µM | [10] 48.3 µM | [11] 25.4 µM | [12] > 100 µM | [13] 52.7 µM | [14] 42.3 µM | [15] 32.9 µM

CCC(=O)CC(=O)CCC(=O)Nc1cc(C)ccc1C
inactive: [1] > 100 µM | [2] > 100 µM | [3] > 100 µM | [4] > 100 µM | [5] > 100 µM | [6] > 100 µM | [7] > 100 µM | [8] > 100 µM | [9] > 100 µM | [11] > 100 µM | [16] > 100 µM | [12] > 100 µM | [13] > 100 µM | [14] > 100 µM | [15] > 100 µM

CN(C)CCC(O)(c1ccccc1)C(O)(CCN(C)C)c1ccccc1 (configuration not stated)
inactive: [2] 38.5 µM | [3] > 100 µM | [4] 94 µM | [5] > 100 µM | [6] 17.7 µM | [7] > 100 µM | [8] > 100 µM | [9] > 100 µM | [11] > 100 µM | [16] > 100 µM | [12] > 100 µM | [13] > 100 µM | [14] > 100 µM | [17] > 100 µM | [15] > 100 µM

c1ccc2c(c1)CCc1cc3cc4c(nc3nc1-2)-c1ccccc1CC4
inactive: [1] > 100 µM | [3] > 100 µM | [4] > 10 µM | [5] > 100 µM | [6] > 100 µM | [7] 83 µM | [8] > 100 µM | [9] 83 µM | [10] > 100 µM | [11] > 100 µM | [16] > 100 µM | [12] > 100 µM | [13] > 100 µM | [14] > 100 µM | [17] > 100 µM | [15] > 100 µM

COc1cc2c(cc1OCc1ccccc1)CNCC2
inactive: [1] 70.3 µM | [2] > 100 µM | [3] > 100 µM | [4] > 100 µM | [6] > 100 µM | [7] > 100 µM | [8] > 100 µM | [9] > 100 µM | [10] > 100 µM | [11] > 100 µM | [16] > 100 µM | [12] > 100 µM | [13] > 100 µM | [14] > 100 µM | [17] > 100 µM | [15] > 100 µM

O=C1C=C(c2[nH]c3ccccc3c2C2=CC(=O)c3ccccc3C2=O)C(=O)c2ccccc21
inactive: [1] 21.8 µM | [2] 31.7 µM | [3] 65.3 µM | [4] > 100 µM | [5] 33 µM | [7] 34.4 µM | [8] 32.8 µM | [9] > 100 µM | [10] 61.7 µM | [11] 36.1 µM | [16] 46.5 µM | [12] 43.8 µM | [13] 16.8 µM | [14] 44.9 µM | [15] 15 µM

CC1C(c2ccccc2)N(C)C(c2ccccc2)C(C)C1(O)c1ccccc1 (configuration not stated)
inactive: [1] 31.8 µM | [2] > 100 µM | [3] 99.5 µM | [4] 55.8 µM | [6] > 100 µM | [7] > 100 µM | [8] > 100 µM | [9] > 100 µM | [10] 44.2 µM | [11] 77.8 µM | [16] > 100 µM | [12] > 100 µM | [13] > 100 µM | [14] > 100 µM | [17] > 100 µM | [15] > 100 µM

O=C(NC1C=CCC2C(=O)N(c3ccccc3)C(=O)C12)OCc1ccccc1 (configuration not stated)
inactive: [1] > 100 µM | [2] > 100 µM | [3] > 100 µM | [4] > 100 µM | [5] > 100 µM | [7] > 100 µM | [8] > 100 µM | [9] > 100 µM | [10] > 100 µM | [11] > 100 µM | [16] > 100 µM | [12] > 100 µM | [13] > 100 µM | [14] > 100 µM | [17] > 100 µM | [15] > 100 µM

Cn1cnc([N+](=O)[O-])c1Sc1nnc(C(F)(F)F)n1C
inactive: [2] 32.6 µM | [3] > 100 µM | [4] 35.7 µM | [5] 19.7 µM | [6] 15.1 µM | [7] 83.6 µM | [8] 17.1 µM | [9] 39.4 µM | [10] 24.9 µM | [11] > 100 µM | [16] > 100 µM | [12] 24.9 µM | [13] 18.5 µM | [14] 23.6 µM | [17] 75.2 µM | [15] 15.2 µM

O=C(O)C1=CNC(C(=O)O)=NN1
inactive: [1] > 100 µM | [2] > 100 µM | [3] > 100 µM | [4] > 100 µM | [5] > 100 µM | [6] > 100 µM | [7] > 100 µM | [8] > 100 µM | [9] > 100 µM | [10] > 100 µM | [11] > 100 µM | [16] > 100 µM | [12] > 100 µM | [13] > 100 µM | [14] > 100 µM | [15] > 100 µM

CCc1cccc(C)c1NC(C)=O
inactive: [1] > 100 µM | [2] > 100 µM | [3] > 100 µM | [4] > 100 µM | [5] > 100 µM | [6] > 100 µM | [8] > 100 µM | [9] > 100 µM | [10] > 100 µM | [11] > 100 µM | [16] > 100 µM | [12] > 100 µM | [13] > 100 µM | [14] > 100 µM | [17] > 100 µM | [15] > 100 µM

C/C(=N\NS(=O)(=O)c1ccc(C)cc1)c1cc2ccccc2n1C
inactive: [1] > 100 µM | [2] > 100 µM | [3] > 100 µM | [4] 76 µM | [5] > 100 µM | [6] > 100 µM | [7] 66.2 µM | [8] 63.8 µM | [9] 68.7 µM | [11] > 100 µM | [16] 74.3 µM | [12] > 100 µM | [13] > 100 µM | [14] > 100 µM | [17] > 100 µM | [15] > 100 µM

Cc1cc(Cl)ccc1NC(=O)C1C(=O)N(c2ccc(Cl)cc2C)C(=O)/C1=N\NC(N)=S (configuration not stated)
inactive: [1] 20.1 µM | [2] 32.7 µM | [3] 35.4 µM | [4] 18.7 µM | [5] 44.8 µM | [6] 18.7 µM | [7] 35.6 µM | [8] 19.6 µM | [9] 32.6 µM | [11] 32.9 µM | [16] 22.6 µM | [12] 41.9 µM | [13] 22.5 µM | [14] 36.2 µM | [17] 20.8 µM | [15] 19.2 µM
